# Laboratory results published in article PMC7849011, “Defining the Antimalarial Activity of Cipargamin in Healthy Volunteers Experimentally Infected with Blood-Stage Plasmodium falciparum” (Antimicrobial Agents and Chemotherapy, 2021).
# “Also recorded” adds a separate entry of the source.
# Columns and labels:
# P. falciparum 3D7 = assay: Induced blood-stage malaria (IBSM) volunteer infection study: parasitemia by 18S rRNA qPCR; assay type: in vivo, Plasmodium falciparum; conditions: for Log10PRR48 (95%CI) / Parasite Clearance Half-Life (95%CI): 10 mg
# From the text: A single cohort of eight subjects was inoculated intravenously with P. falciparum 3D7-infected human erythrocytes (approximately 1,800 viable parasites) as previously described ([24]). Parasite growth was monitored by collecting blood samples and performing quantitative PCR (qPCR) targeting the gene encoding P. falciparum 18S rRNA ([25]). […] The dose of cipargamin selected was predicted to be subtherapeutic based on preclinical modeling ([7]) and pharmacokinetic data obtained in previous clinical studies ([8]) and thus chosen to facilitate modeling to estimate the pharmacokinetic/pharmacodynamic relationship. To monitor total parasitemia, blood samples were collected for 18S rRNA qPCR before inoculation, on day 3, twice daily on days 4 to 6, pretreatment on day 7, and 4, 8, 12, 16, 24, 30, and 36 h posttreatment, twice daily from day 9 to day 11, and every 1 to 3 days until day 35. Blood samples for gametocytemia measurements were collected on day 11, every 1 to 3 days between day 15 and day 29, and on day 35. […] Analyses were performed in R version 3.3.0. The PRR and parasite clearance half-life were estimated using the slope of the optimal fit for the log-linear relationship of the parasitemia decay as described previously ([27]).
# clinical = conditions: human, in vivo, 10 mg
# Procedure: Blood samples were collected at the following time points after dosing to determine the cipargamin plasma concentration: 1, 2, 3, 4, 8, 12, 16, 24, 36, 48, 72, 96, and 120 h. Samples were analyzed by liquid chromatography-tandem mass spectrometry as previously described ([8]). Noncompartmental PK analysis was performed using WinNonlin Pro version 6.4.
# [1] = tested on: P. falciparum female gametocytes; assay: Gametocytemia by pfs25 qRT-PCR; assay type: in vivo, Plasmodium falciparum
# Procedure: A single oral dose of 960 mg piperaquine (PCI Pharma Services, United Kingdom) was administered to subjects in response to parasite regrowth. The purpose of piperaquine treatment was to clear asexual parasites without clearing any gametocytes that may be present. This would allow the gametocytocidal activity of a second dose of cipargamin to be investigated, as well as the transmission of gametocytes to mosquitoes. Gametocytemia was monitored using quantitative reverse transcriptase PCR (qRT-PCR) targeting pfs25 mRNA, a transcript preferentially expressed in mature female gametocytes ([26]). Transcripts per milliliter of blood were converted to female gametocytes per milliliter of blood using a standard curve ([29]). All participants were to receive compulsory rescue treatment with artemether-lumefantrine ([…]; Novartis Pharmaceuticals Pty. Ltd., Macquarie Park, Australia), as well as a single 45-mg dose of primaquine ([…] Group, Sydney, Australia) to clear gametocytes, 21 days after cipargamin dosing or earlier if a second round of parasite regrowth occurred following piperaquine treatment. To monitor total parasitemia, blood samples were collected for 18S rRNA qPCR before inoculation, on day 3, twice daily on days 4 to 6, pretreatment on day 7, and 4, 8, 12, 16, 24, 30, and 36 h posttreatment, twice daily from day 9 to day 11, and every 1 to 3 days until day 35. Blood samples for gametocytemia measurements were collected on day 11, every 1 to 3 days between day 15 and day 29, and on day 35. […] Analyses were performed in R version 3.3.0. The PRR and parasite clearance half-life were estimated using the slope of the optimal fit for the log-linear relationship of the parasitemia decay as described previously ([27]).
# Plasmodium falciparum = conditions: cited from earlier work
# [2] = 10 mg single oral dose, 8 healthy subjects, IBSM
smiles,measurement,setting,value
C[C@H]1Cc2c([nH]c3cc(Cl)c(F)cc23)[C@@]2(N1)C(=O)Nc1ccc(Cl)cc12 [cipargamin],time to observed reduction in parasitemia,P. falciparum 3D7; 10 mg single oral dose,≤ 24 h
same,"log10 parasite reduction ratio over 48 h postdose (PRR48), cohort-specific",P. falciparum 3D7; [2],3.63
same,"parasite clearance half-life, cohort-specific",P. falciparum 3D7; [2],3.99 h
same,time of parasite regrowth after dosing,"P. falciparum 3D7; 10 mg single oral dose, all 8 subjects",3 to 8 days
same,Log10PRR48 (95%CI),P. falciparum 3D7; subject 1,"4.22 (3.15, 5.29)"
same,Parasite Clearance Half-Life (95%CI),P. falciparum 3D7; subject 1,"3.42 (2.73, 4.59) h"
same,Log10PRR48 (95%CI),P. falciparum 3D7; subject 2,"5.84 (4.79, 6.90)"
same,Parasite Clearance Half-Life (95%CI),P. falciparum 3D7; subject 2,"2.47 (2.10, 3.02) h"
same,Log10PRR48 (95%CI),P. falciparum 3D7; subject 3,"4.09 (3.45, 4.73)"
same,Parasite Clearance Half-Life (95%CI),P. falciparum 3D7; subject 3,"3.53 (3.05, 4.19) h"
same,Log10PRR48 (95%CI),P. falciparum 3D7; subject 4,"2.18 (1.62, 2.73)"
same,Parasite Clearance Half-Life (95%CI),P. falciparum 3D7; subject 4,"6.64 (5.30, 8.90) h"
same,Log10PRR48 (95%CI),P. falciparum 3D7; subject 5,"4.23 (3.48, 4.98)"
same,Parasite Clearance Half-Life (95%CI),P. falciparum 3D7; subject 5,"3.42 (2.90, 4.15) h"
same,Log10PRR48 (95%CI),P. falciparum 3D7; subject 6,"1.28 (0.85, 1.71)"
same,Parasite Clearance Half-Life (95%CI),P. falciparum 3D7; subject 6,"11.39 (8.47, 17.37) h"
same,Log10PRR48 (95%CI),P. falciparum 3D7; subject 7,"4.12 (3.22, 5.03)"
same,Parasite Clearance Half-Life (95%CI),P. falciparum 3D7; subject 7,"3.51 (2.87, 4.49) h"
same,Log10PRR48 (95%CI),P. falciparum 3D7; subject 8,"4.63 (4.34, 4.92)"
same,Parasite Clearance Half-Life (95%CI),P. falciparum 3D7; subject 8,"3.12 (2.93, 3.33) h"
same,"drug exposure (AUC0–∞) in IBSM subjects, fold lower than in patients with naturally acquired malaria",clinical,around 3 fold
same,AUC(0-inf),clinical; po,1950 ± 753 ng·h/mL
same,"CL/F, mean ± SD (% CV)",clinical; po,5.72 ± 1.93 (33.7) liters/h
same,Cmax,clinical; po,101 ± 18.3 ng/mL
same,Tmax,clinical; po,2 h
same,Vd/F,clinical; po,209 ± 54.5 L
same,AUC(0-t),"clinical; po, AUC0–24 h, mean ± SD (% CV)",1010 ± 242 ng·h/mL
same,AUC(0-t),"clinical; po, AUC0–last, mean ± SD (% CV)",1850 ± 690 ng·h/mL
same,half-life,"clinical; po, t1/2 (elimination half-life), mean ± SD (% CV)",~26 h
same,gametocyte development after treatment,"[1]; 10 mg cipargamin, followed by piperaquine",Low gametocyte densities were detected in all subjects; also recorded: detected in all 8 subjects; also recorded: not sufficient to prevent gametocyte development
same,"gametocytemia at time of DMFA, geometric mean",[1]; 20 days after cipargamin dosing,439 gametocytes/ml
same,"peak gametocytemia, geometric mean","[1]; after 10 mg cipargamin then 960 mg piperaquine, 8 subjects",976 female gametocytes/ml
same,time of peak gametocytemia after cipargamin dosing,"[1]; all subjects, 24 days postinoculation",approximately 17 days
same,in vitro activity against P. falciparum stages,Plasmodium falciparum,active against both asexual and sexual stages
same,inhibition of early- and late-stage gametocyte development in vitro,Plasmodium falciparum,potent inhibitor
same,inhibition of oocyst development in vitro,Plasmodium falciparum,potent inhibition
